PMC11348465, “Pharmacochemical Study of Multitarget Amino Acids’ Hybrids: Design, Synthesis, In vitro, and In silico Studies” (Medicinal Chemistry (Shariqah (United Arab Emirates), 2024)
Each block holds one compound with its values, some of them ahead of it.

What was measured:
[1] = Inhibition of linoleic acid peroxidation (AAPH-induced)
Description: Our group evaluated the in vitro study as reported previously. Ten 16 mM sodium linoleate solution microliters were added to the UV cuvette containing 93 µL of a 0.05 M phosphate buffer, pH 7.4, and 10 µL of the tested compounds (final concentration 100 µM). The oxidation reaction started at 37 °C under air by adding 50 µL of the free radical initiator AAPH (40 mM). Oxidation was carried out and monitored at 234 nm. DMSO under the same conditions was used as a negative control. Trolox was used as the appropriate standard (positive control). The results are given in Table S1 in the supplementary material.
We used the water-soluble 2, 2’-azobis(2-amidinopropane) hydrochloride (AAPH) to generate in vitro peroxyl radicals through spontaneous thermal decomposition, which resembles cellular lipid peroxidation due to the activity of the undertaken radicals. The anti-lipid peroxidation activities were compared to a well-known antioxidant, i.e., Trolox (Table S1 in the supplementary material). […] In general, the anti-lipid peroxidation ranged from 8-99%. Except for acids 11, 12, 17, 19, 21, 22, 24, 25, and 28, which present high antioxidant activities (on the high % level), the other cinnamic acids present low or medium activity.

ovine COX-2 = biological target: T1, ovine COX-2 (Ovis aries, UniProt P79208); test: Cyclooxygenase-2 inhibition study; assay type: biochemical; settings: for IC50: read-out: COX-2 inhibition (IC50); for COX-2 inhibition (%): % inhibition at 100 µM
T1 construct: purchased Cayman (USA)
T1 sequence (P79208 17-603): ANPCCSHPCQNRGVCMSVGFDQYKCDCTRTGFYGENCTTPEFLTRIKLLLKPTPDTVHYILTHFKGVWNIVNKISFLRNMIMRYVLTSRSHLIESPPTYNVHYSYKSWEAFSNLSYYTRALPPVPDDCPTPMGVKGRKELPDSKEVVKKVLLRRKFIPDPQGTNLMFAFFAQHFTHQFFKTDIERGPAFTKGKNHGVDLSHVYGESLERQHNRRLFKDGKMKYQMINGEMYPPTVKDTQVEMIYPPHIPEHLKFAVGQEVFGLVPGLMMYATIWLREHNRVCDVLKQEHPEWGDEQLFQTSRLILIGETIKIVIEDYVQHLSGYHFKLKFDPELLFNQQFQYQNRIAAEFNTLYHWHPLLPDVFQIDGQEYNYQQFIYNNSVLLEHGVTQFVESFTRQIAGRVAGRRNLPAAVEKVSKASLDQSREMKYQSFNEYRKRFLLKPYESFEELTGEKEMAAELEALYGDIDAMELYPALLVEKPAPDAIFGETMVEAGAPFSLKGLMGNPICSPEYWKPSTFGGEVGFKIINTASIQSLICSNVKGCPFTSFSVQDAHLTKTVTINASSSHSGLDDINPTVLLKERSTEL
Description: The in vitro study of cyclooxygenase (COX) activity was determined by using arachidonic acid (AA) as the substrate and N,N,N’,N’-tetramethylphenylenediamine (TMPD) as the co-substrate. […] The absorption due to the spontaneous oxidation of TMPD was subtracted from the initial rate of oxidation observed in the presence of AA. […] A blank determination was used first to serve as a negative control. Indomethacin was used as a reference COX-2 inhibitor (positive control).
The role of COX-2 in neurodegenerative diseases has been reported, and COX-2 inhibition is considered of high importance as a therapeutic tool. The designed derivatives were tested for their COX-2 inhibition activity on the ovine COX-2 enzyme. […] Indomethacin was used as a reference compound.

[2] = biological target: T2, soybean lipoxygenase (LOX-1) (Glycine max, UniProt P08170); test: Soybean lipoxygenase inhibition study; assay type: biochemical; settings: for LOX inhibition (%): % inhibition at 100 µM; for IC50: read-out: LOX inhibition (IC50)
T2 construct: purchased Sigma Chemical, Co. (St Louis, MO, USA)
T2 sequence (P08170 1-839): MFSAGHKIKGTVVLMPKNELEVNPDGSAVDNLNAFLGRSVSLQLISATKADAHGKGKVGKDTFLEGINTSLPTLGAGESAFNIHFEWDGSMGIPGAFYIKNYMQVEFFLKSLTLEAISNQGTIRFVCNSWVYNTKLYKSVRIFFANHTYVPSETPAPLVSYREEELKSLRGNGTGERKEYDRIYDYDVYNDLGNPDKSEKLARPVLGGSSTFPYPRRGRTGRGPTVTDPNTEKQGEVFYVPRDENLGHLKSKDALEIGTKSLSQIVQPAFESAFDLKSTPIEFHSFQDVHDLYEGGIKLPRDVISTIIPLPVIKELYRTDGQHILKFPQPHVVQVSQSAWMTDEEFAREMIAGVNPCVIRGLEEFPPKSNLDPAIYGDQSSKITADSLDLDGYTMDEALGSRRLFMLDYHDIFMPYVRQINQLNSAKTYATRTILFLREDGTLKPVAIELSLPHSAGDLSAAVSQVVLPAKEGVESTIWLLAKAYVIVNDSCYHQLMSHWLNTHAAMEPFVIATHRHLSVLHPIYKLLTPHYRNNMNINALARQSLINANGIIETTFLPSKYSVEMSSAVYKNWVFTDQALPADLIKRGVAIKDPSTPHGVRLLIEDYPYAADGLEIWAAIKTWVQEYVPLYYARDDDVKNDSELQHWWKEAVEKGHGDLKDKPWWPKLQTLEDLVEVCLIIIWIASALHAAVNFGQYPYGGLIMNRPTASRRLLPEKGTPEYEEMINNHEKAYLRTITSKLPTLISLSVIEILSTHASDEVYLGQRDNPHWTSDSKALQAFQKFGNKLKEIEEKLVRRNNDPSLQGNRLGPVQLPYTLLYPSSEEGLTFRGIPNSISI
Description: Our group evaluated an in vitro study as reported previously. The tested hybrids were incubated at room temperature with sodium linoleate (100 µM) and 200 µL of enzyme solution (1/9 X 10^-4 w/v in saline). […] Different concentrations were used for the determination of IC50. A blank determination was used as a negative control.
Due to the limited work on sufficiently purified human ALOX-5 isoenzyme, most of the published research was performed on the soybean homolog. […] This study used the soybean isoenzyme LOX-1, which exerts maximal activity at pH 9.0 [72].

SMILES: CCOC(=O)CNC(=O)/C=C/c1ccc(OCc2ccc(Br)cc2)cc1 [Compound 11a, Ethyl (E)-(3-(4-((4-bromobenzyl)oxy)phenyl)acryloyl)glycinate]
AAPH inhibition (%, at 100 µM) [1]: 38%
IC50 (ovine COX-2): 6 µM

SMILES: COC(=O)CCCNC(=O)/C=C/c1ccc(OCc2ccc(Br)cc2)cc1 [Compound 11b]
AAPH inhibition (%, at 100 µM) [1]: 19%
LOX inhibition (%) [2]: 30%

SMILES: COC(=O)CC[C@H](NC(=O)/C=C/c1ccc(OCc2ccc(Br)cc2)cc1)C(=O)OC [Compound 11c]
AAPH inhibition (%, at 100 µM) [1]: 92%

SMILES: COC(=O)CC[C@H](NC(=O)/C=C/c1cccc(Oc2ccccc2)c1)C(=O)OC [Compound 12c]
AAPH inhibition (%, at 100 µM) [1]: 65%
IC50 [2]: 60 µM

SMILES: CCOC(=O)CNC(=O)/C=C/c1ccc(C(F)(F)F)cc1 [Compound 13a]
AAPH inhibition (%, at 100 µM) [1]: 8%
LOX inhibition (%) [2]: 31%

SMILES: COC(=O)CC[C@H](NC(=O)/C=C/c1ccc(C(F)(F)F)cc1)C(=O)OC [Compound 13c]
AAPH inhibition (%, at 100 µM) [1]: 37%
IC50 [2]: 80 µM

SMILES: O=C(O)/C=C/c1ccc(Br)cc1 [Compound 14]
AAPH inhibition (%, at 100 µM) [1]: 13%
IC50 (ovine COX-2): 100 µM

SMILES: CCOC(=O)CNC(=O)/C=C/c1ccc(Br)cc1 [Compound 14a]
AAPH inhibition (%, at 100 µM) [1]: 69%
IC50 (ovine COX-2): 65.5 µM

SMILES: COC(=O)CCCNC(=O)/C=C/c1ccc(Br)cc1 [Compound 14b]
AAPH inhibition (%, at 100 µM) [1]: 11%
LOX inhibition (%) [2]: 12%

SMILES: COC(=O)CC[C@H](NC(=O)/C=C/c1ccc(Br)cc1)C(=O)OC [Compound 14c]
AAPH inhibition (%, at 100 µM) [1]: 38%
IC50 [2]: 75 µM

SMILES: CCOC(=O)CNC(=O)/C=C/c1cccc(Br)c1 [Compound 15a]
AAPH inhibition (%, at 100 µM) [1]: 26%
IC50 [2]: 57.5 µM

SMILES: COC(=O)CCCNC(=O)/C=C/c1cccc(Br)c1 [Compound 15b]
AAPH inhibition (%, at 100 µM) [1]: 27%
COX-2 inhibition (%) (ovine COX-2): 43%

SMILES: COC(=O)CC[C@H](NC(=O)/C=C/c1cccc(Br)c1)C(=O)OC [Compound 15c]
IC50 [2]: 75 µM

SMILES: O=C(O)/C=C/c1ccc(Cl)cc1 [Compound 16]
inhibition at 100 µM (ovine COX-2): 46%

SMILES: CCOC(=O)CNC(=O)/C=C/c1ccc(Cl)cc1 [Compound 16a]
IC50 (ovine COX-2): 63 µM

SMILES: COC(=O)CCCNC(=O)/C=C/c1ccc(Cl)cc1 [Compound 16b]
AAPH inhibition (%, at 100 µM) [1]: 8%
IC50 (ovine COX-2): 92.5 µM

SMILES: COC(=O)CC[C@H](NC(=O)/C=C/c1ccc(Cl)cc1)C(=O)OC [Compound 16c]
AAPH inhibition (%, at 100 µM) [1]: 26%

SMILES: O=C(O)/C=C/c1cccc2ccccc12 [Compound 17]
AAPH inhibition (%, at 100 µM) [1]: 78%

SMILES: CCOC(=O)CNC(=O)/C=C/c1cccc2ccccc12 [Compound 17a]
LOX inhibition (%) [2]: 23%

SMILES: COC(=O)CCCNC(=O)/C=C/c1ccc(OC)c(OC)c1 [Compound 18b]
AAPH inhibition (%, at 100 µM) [1]: 75%
LOX inhibition (%) [2]: 40%

SMILES: COC(=O)CC[C@H](NC(=O)/C=C/c1ccc(OC)c(OC)c1)C(=O)OC [Compound 18c]
AAPH inhibition (%, at 100 µM) [1]: 74%
IC50 [2]: 57.5 µM

SMILES: CCOC(=O)CNC(=O)/C=C/c1cc(OC)ccc1OC [Compound 19a]
AAPH inhibition (%, at 100 µM) [1]: 89%
LOX inhibition (%) [2]: 28%

SMILES: COC(=O)CCCNC(=O)/C=C/c1cc(OC)ccc1OC [Compound 19b]
AAPH inhibition (%, at 100 µM) [1]: 70%
COX-2 inhibition (%) (ovine COX-2): 20%

SMILES: COC(=O)CC[C@H](NC(=O)/C=C/c1cc(OC)ccc1OC)C(=O)OC [Compound 19c]
AAPH inhibition (%, at 100 µM) [1]: 64%
LOX inhibition (%) [2]: 7%

SMILES: O=C(O)/C=C/c1ccc2c(c1)OCO2 [Compound 20]
AAPH inhibition (%, at 100 µM) [1]: 31%
inhibition at 100 µM ([2]; read-out: LOX inhibition (%)): 27%

SMILES: COC(=O)CCCNC(=O)/C=C/c1ccc2c(c1)OCO2 [Compound 20b]
AAPH inhibition (%, at 100 µM) [1]: 9%
IC50 [2]: 67.5 µM

SMILES: COC(=O)CC[C@H](NC(=O)/C=C/c1ccc2c(c1)OCO2)C(=O)OC [Compound 20c]
AAPH inhibition (%, at 100 µM) [1]: 20%
LOX inhibition (%) [2]: 19%

SMILES: COC(=O)CC[C@H](NC(=O)/C=C/c1cccs1)C(=O)OC [Compound 21c]
AAPH inhibition (%, at 100 µM) [1]: 41%
IC50 [2]: 100 µM

SMILES: COc1cc(/C=C/C(=O)O)ccc1O [Compound 24]
AAPH inhibition (%, at 100 µM) [1]: 86%
inhibition at 100 µM (ovine COX-2): 14%

SMILES: CCOC(=O)CNC(=O)/C=C/c1ccc(O)cc1 [Compound 25a]
AAPH inhibition (%, at 100 µM) [1]: 39%

SMILES: O=C(O)/C=C/c1ccc(F)cc1 [Compound 27]
inhibition at 100 µM (ovine COX-2): 46%

SMILES: CCOC(=O)CNC(=O)/C=C/c1ccc(F)cc1 [Compound 27a]
AAPH inhibition (%, at 100 µM) [1]: 78%

SMILES: O=C(O)/C=C/c1ccc(O)c(O)c1 [Compound 28, trans-caffeic acid]
AAPH inhibition (%, at 100 µM) [1]: 80%
inhibition at 100 µM (ovine COX-2): 6%

SMILES: Cc1c(C)c2c(c(C)c1O)CCC(C)(C(=O)O)O2 (stereo not shown) [Trolox, reference compound]
AAPH inhibition (%, at 100 µM) [1]: 92%

Second part, led by results:

IC50 (ovine COX-2): 61 µM
SMILES: COC(=O)CCCNC(=O)C=Cc1ccccc1 [Compound 22b]
AAPH inhibition (%, at 100 µM) [1]: 24%

LOX inhibition (%) [2]: 10%
SMILES: COC(=O)CC[C@H](NC(=O)/C=C/c1ccccc1)C(=O)OC [Compound 22c]
AAPH inhibition (%, at 100 µM) [1]: 39%

IC50 (ovine COX-2): 35 µM
SMILES: CCOC(=O)CNC(=O)/C=C/C=C/c1ccccc1 [Compound 23a]
AAPH inhibition (%, at 100 µM) [1]: 85%

IC50 (ovine COX-2): 55 µM
SMILES: COC(=O)CCCNC(=O)/C=C/C=C/c1ccccc1 [Compound 23b]
AAPH inhibition (%, at 100 µM) [1]: 78%

IC50 (ovine COX-2): 77.5 µM
SMILES: CCOC(=O)CNC(=O)/C=C/c1ccc(C#N)cc1 [Compound 26a]
AAPH inhibition (%, at 100 µM) [1]: 37%

IC50 (ovine COX-2): 32.5 µM
SMILES: COC(=O)CCCNC(=O)/C=C/c1ccc(C#N)cc1 [Compound 26b]
AAPH inhibition (%, at 100 µM) [1]: 3%

LOX inhibition (%) [2]: 10%
SMILES: COC(=O)CC[C@H](NC(=O)/C=C/c1ccc(C#N)cc1)C(=O)OC [Compound 26c]

IC50 (ovine COX-2): 75 µM
SMILES: COC(=O)CCCNC(=O)/C=C/c1ccc(F)cc1 [Compound 27b]
AAPH inhibition (%, at 100 µM) [1]: 22%

COX-2 inhibition (%) (ovine COX-2): 4%
SMILES: COC(=O)CCCNC(=O)/C=C/c1ccc2c(c1)OC(C)(C)O2 [Compound 29b]

IC50 (ovine COX-2): 58 µM
SMILES: CCOC(=O)CNC(=O)/C=C/c1ccc(OC(C)=O)cc1 [Compound 30a]

IC50 (ovine COX-2): 50 µM
SMILES: COC(=O)CCCNC(=O)/C=C/c1ccc(OC(C)=O)cc1 [Compound 30b]
AAPH inhibition (%, at 100 µM) [1]: 9%
